In US20240139185A1, “COMPOUNDS THAT PARTICIPATE IN COOPERATIVE BINDING AND USES THEREOF” (Revolution Medicines, Inc., priority 2018, published 2024):
Read-outs that look alike come from different tables or passages of the source. Marks after values point to notes of the source that are not given here. Blank lines part the entries; values can stand above or below the molecule they belong to.

What was measured:
[1] = 18-membered ring
BRAF-GTP-KRASWT complex = target: T1, BRAF-GTP-KRASWT complex (Homo sapiens, UniProt P01116+P62937); assay: KRAS-BRAF complex disruption TR-FRET with wild-type KRAS (G12C specificity); format: biochemical; settings: with CYPA
T1 construct: substitute His6-KRas WT-GTP (1-169) for His6-KRas G12C-GTP (1-169); 500 nM of tagless CypA (1-165)
Method: (§1) In this example, TR-FRET was used to measure the compound-facilitated disruption of a KRAS-BRAF complex. A mixture of tagless Cyclophilin A, His6-KRAS G12C-GMP-PNP, and GST-BRAF RAS binding domain was added to a 384-well assay plate containing compounds of the invention and incubated for 3 hours. A mixture of Anti-His Eu-W1024 and anti-GST allophycocyanin was then added and the reaction was incubated for an additional 1.5 hours. TR-FRET signal was read on an EnVision microplate reader (Perkin Elmer, Ex 320 nm, Em 665/615 nm). Compounds that facilitate disruption of a KRAS_BRAF complex were identified as those eliciting a decrease in the TR-FRET ratio relative to DMSO control wells. To determine the presenter-dependence of the compound-mediated KRAS-BRAF complex disruption, Cyclophilin A was left out of the initial incubation (see Table 5). To determine G12C specificity of the compound-mediated KRAS-BRAF complex disruption, wild-type KRAS was used instead of G12C KRAS (see Table 5).
(§2) Reagents and Instrument • Tagless CYPA; 519 μM in PBS buffer, pH 7.4 • GST BRAF; 110 μM in PBS buffer, pH 7.4 • His6-KRASG12C-GMP-PNP; 50 μM in PBS buffer, pH 7.4 • His6-KRASWT-GMP-PNP; 40 μM in PBS buffer, pH 7.4 • Anti-His Eu-W1024 (LANCE® Eu-W1024; Perkin Elmer) • Anti-GST allophycocyanin (Anti-GST IgG conjugated to SureLight®-Allophycocyanin; Perkin Elmer; Product Number AD0059G) • Test compounds, 10 mM in 100% DMSO • EnVision (Perkin Elmer) • Combi MultiDrop liquid dispenser with 8-channel small volume cassette • 384-well ProxiPlate (black)
(§3) Experimental Protocol • 1. Use Mosquito to dispense 100 nL/well of compounds (varying concentration in […]) into 384-well black ProxiPlate to make assay-ready-plate (ARP). • 2. Make assay buffer containing 25 mM Hepes pH 7.3, 100 mM NaCl, 5 mM MgCl2, 0.05% BSA, and 0.002% Tween-20. • 3. Make PRE-MIX A: delivers final concentrations of 50 nM of His6-KRas G12C-GTP (1-169) and 500 nM of tagless CypA (1-165) in assay buffer. • a. […] Read on EnVision (Ex: 320 nm; Em1: 615 nm; Em2: 665 nm). • 8. […]

[2] = target: T2, BRAF-GTP-KRAS-G12C complex (Homo sapiens, UniProt P01116, G12C); assay: KRAS-BRAF complex disruption TR-FRET without CYPA (presenter dependence); format: biochemical
T2 construct: 50 nM of His6-KRas G12C-GTP (1-169)
Method: as §1, §2, §3

KRAS-G12C = target: T3, KRAS-G12C (Homo sapiens, UniProt P01116+P62937, G12C); assay: Percentage of crosslinking to KRAS-G12C in the presence of BME and CYPA (TOF-MS); format: biochemical; settings: 60 minute incubation; compound 2 μM, CypA 5 μM, G12C-GMPNP 0.5 μM, BME
T3 construct: CypA 1-165 (final concentration 5 μM)
Method: • 1. 10×Incubation buffer: 125 mM HEPES pH 7.4, 750 mM NaCl, 10 mM MgCl2 • 2. 50 μM Protein A stock (CypA) in incubation buffer • 3. 5 μM Protein B (G12C-GMPNP) stock in incubation buffer • 4. 20 μM compound stock in 1×Incubation buffer with 10% DMSO • 5. 25 mM BME stock solution (prepared by diluting the BME stock in Milli Q water)
CypA 1-165 (final concentration 5 μM), test compound (final concentration 2 μM) and G12C-GMPNP (final concentration 0.5 μM) were incubated in the incubation buffer ([…]) for the requisite amount of time at room temperature. The samples were quenched with formic acid, final concentration 0.5%. 10 μL aliquots were injected to TOF-MS.
Sequence of Addition for a Final Incubation Volume of 50 μL • 1. 5 μL 10×incubation buffer • 2. 28 ul H2O • 3. 2 μL from 25 mM BME stock • 4. 5 μL CypA at 50 uM • 5. 5 μL from 5 μM G12C-GMPNP • 6. 5 μL compound from 20 μM compound stock
LC-MS is performed on an Agilent 6230 TOF-LC mass spectrometer equipped with an electrospray probe operated in positive ionization mode. 10 μL samples are injected on a Sepax Bio-C4, 300 Å, 2.1×100 mm column. The mobile phase is 0.1% (vol/vol) formic acid and 0.1% 1 mM ammonium formate in 95% water, 4.8% acetonitrile (A) and 0.1% (vol/vol) formic acid and 0.1% 1 mM ammonium formate in 95% acetonitrile and 4.8% water (B). The separation is performed by a 9 min total gradient consisting of 5 min linear gradient from 25% to 50% B, and a wash at 100% B for 1.25 min, all at a flow rate of 0.6 mL/min (see attached timetable below). Mass spectrometer source conditions were capillary voltage, 4,000 V; cone voltage, 120 V; source temperature, 275° C.; scan range, 100-2,000 a.m.u. with a cycle time of 1 s.
The observed mass is generated by averaging the major peak in the total ion current (TIC). The charge-state series of the species are deconvoluted using Agilent MassHunter Bioconfirm using maximum entropy setting (range is set to 17000-23000 Da). […]

cyclophilin A (CYPA) = cyclophilin A (CYPA) (Homo sapiens, UniProt P62937); assay: CYPA-compound binary complex formation by SPR; settings: read-out: CYPA Binding Affinity
Method in brief: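 Steady-state fit of SPR responses gave binding affinity. Analyte series: 50 μM downward, 2-fold, 10 points, running buffer HBS-P+ (0.05% Tween20, pH7.4, 2% DMSO), 60 s on/60 s off. Surface: biotinylated CypA-Avi captured at 4 μg/ml against a reference cell, regenerated with NaOH/guanidine.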

[3] = target: T4, BRAF-GTP-KRAS-G12C complex (Homo sapiens, UniProt P01116+P62937, G12C); assay: KRAS-BRAF complex disruption through competition with CYPA-compound by TR-FRET; settings: biochemical BRAF-KRAS G12C-GTP disruption assay EC50, with CYPA
T4 construct: 50 nM of His6-KRas G12C-GTP (1-169); 500 nM of tagless CypA (1-165)
Method in brief: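 Compound-driven loss of KRAS–BRAF RBD TR-FRET signal, Eu-anti-His/APC-anti-GST pair (10/50 nM, 1.5 h), following a 3 h room-temperature preincubation of 50 nM His6-KRAS G12C-GTP and 500 nM CypA in 25 mM Hepes pH 7.3 buffer. EC50 by 4-parameter fit. Variants used wild-type KRAS in place of G12C or no CypA.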

SMILES: CC(C)[Si](Oc1cc2cc(c1)-c1ccc3c(C#N)cn(c3c1)CC(C)(C)CNC(=O)[C@@H]1CCCN(N1)C(=O)[C@@H](NC(=O)OC(C)(C)C)C2)(C(C)C)C(C)C
ring closure, isolated yield ([1]; from CC(C)[Si](Oc1cc(C[C@H](NC(=O)OC(C)(C)C)C(=O)N2CCC[C@@H](C(=O)NCC(C)(C)Cn3cc(C#N)c4ccc(Br)cc43)N2)cc(B2OC(C)(C)C(C)(C)O2)c1)(C(C)C)C(C)C, cc_pd bond, Pd(dppf)Cl2.CH2Cl2/K2CO3, dioxane/H2O 5:1, 22.9 mM, 80.0 °C, 2.0 h): 53%

SMILES: CC(C)[Si](Oc1cc2cc(c1)-c1ccc3c(Br)cn(c3c1)C[C@H](C)COC(=O)[C@@H]1CCCN(N1)C(=O)[C@@H](NC(=O)OC(C)(C)C)C2)(C(C)C)C(C)C
ring closure, isolated yield ([1]; from CC(C)[Si](Oc1cc(C[C@H](NC(=O)OC(C)(C)C)C(=O)N2CCC[C@@H](C(=O)O)N2)cc(-c2ccc3c(Br)cn(C[C@H](C)CO)c3c2)c1)(C(C)C)C(C)C, ester bond, EDCI/HOBt/DIEA, DCM, 122.5 mM, 25.0 °C, 16.0 h): 59%

IC50 (BRAF-GTP-KRASWT complex): > 30 µM
IC50 [2]: > 30 µM
% Crosslinking with KRAS-G12C-GTP in presence of CYPA (KRAS-G12C): 39^‡ %
Kd (cyclophilin A (CYPA)): ≤ 5 µM
EC50 [3]: 500 to 5000 nM
SMILES: CC(C)[C@@H](C(=O)N[C@H]1Cc2cc(O)cc(c2)-c2ccc3nc(-c4cccnc4)n(c3c2)CCCOC(=O)[C@@H]2CCCN(N2)C1=O)N(C)C(=O)C1CN(C(=O)CCl)C1 [Compound 169]
